{"source": "patent US8703467B2", "about": "(priority 2004, dated 2014)", "tested_on": "mice", "note": "Read-outs that look alike come from different tables or passages of the source.", "protocol": "A formalin-inactivated and a double-inactivated (formalin+UV-irradiation) RRV candidate vaccine was adjusted to 10 μg per dose, and then diluted in 4 fold steps. Each dilution was injected into a group of 10 mice. After 3 weeks the mice were boostered with the corresponding amount of the vaccine. Blood samples were drawn at week 3, before the booster, and at week 6, 3 weeks after the booster. The sera were analyzed by a RRV antibody ELISA. The effective dose 50 (ED50), this is the antigen dose which is sufficient to induce seroconversion in 50% of the immunized mice, was then calculated."}
{"substance": "Formalin", "values": [{"measurement": "number of mice with ELISA-Titer 10^1", "setting": "Week 3, N 60", "result": 8}, {"measurement": "number of mice with ELISA-Titer 10^2", "setting": "Week 3, N 60", "result": 8}, {"measurement": "number of mice with ELISA-Titer 10^3", "setting": "Week 3, N 60", "result": 9}, {"measurement": "number of mice with ELISA-Titer 10^4", "setting": "Week 3, N 60", "result": 0}, {"measurement": "number of mice with ELISA-Titer 10^5", "setting": "Week 3, N 60", "result": 0}, {"measurement": "number of mice with ELISA-Titer 10^6", "setting": "Week 3, N 60", "result": 0}, {"measurement": "number of mice with ELISA-Titer 10^7", "setting": "Week 3, N 60", "result": 0}, {"measurement": "number of mice with ELISA-Titer 10^8", "setting": "Week 3, N 60", "result": 0}, {"measurement": "number of mice with ELISA-Titer <10^1", "setting": "Week 3, N 60", "result": 35}, {"measurement": "number of mice with ELISA-Titer 10^4", "setting": "Week 3, N 60, listed as formalin group", "result": "no mouse"}, {"measurement": "number of mice with ELISA-Titer 10^1", "setting": "Week 6, after booster, N 60", "result": 7}, {"measurement": "number of mice with ELISA-Titer 10^2", "setting": "Week 6, after booster, N 60", "result": 5}, {"measurement": "number of mice with ELISA-Titer 10^3", "setting": "Week 6, after booster, N 60", "result": 15}, {"measurement": "number of mice with ELISA-Titer 10^4", "setting": "Week 6, after booster, N 60", "result": 11}, {"measurement": "number of mice with ELISA-Titer 10^5", "setting": "Week 6, after booster, N 60", "result": 8}, {"measurement": "number of mice with ELISA-Titer 10^6", "setting": "Week 6, after booster, N 60", "result": 0}, {"measurement": "number of mice with ELISA-Titer 10^7", "setting": "Week 6, after booster, N 60", "result": 0}, {"measurement": "number of mice with ELISA-Titer 10^8", "setting": "Week 6, after booster, N 60", "result": 0}, {"measurement": "number of mice with ELISA-Titer <10^1", "setting": "Week 6, after booster, N 60", "result": 14}, {"measurement": "ED50 Week 6 (Booster)", "setting": "mice, 3 weeks after the booster", "result": 33, "unit": "ng"}, {"measurement": "ED50 Week 3", "setting": "mice, before the booster, antigen dose inducing seroconversion in 50% of immunized mice", "result": 635, "unit": "ng"}]}
